Laboratory results: patent US20150258020A1, “CHEWABLE TABLETS COMPRISING LEVONORGESTREL” (priority 2014, published 2015)

Settings: particle size by volume, laser light diffraction, dry dispersion
From the text: Particle size determination of Levonorgestrel
Equipment • Diffractometer of laser light, Mastersizer 3000 or equivalent • Micro analytical balance or semimicro
Weigh approximately 0.2-0.3g of the drug substance, and introduce to the dry accessory.
Dispersion Unit: MAZ3500 and cell (AD01)
Refraction index: 1.5/1.5 (red light/blue light)
Distribution Format: • Single mode • Enhanced sensitivity • Fine powder (activate)
Background run time: 10 s
Filter obscuration: 0.5-6%
Sampler settings: • Vibration feed rate: 50% • Dispersive air pressure: 2.5 bar

## C#C[C@]1(O)CC[C@H]2[C@@H]3CCC4=CC(=O)CC[C@@H]4[C@H]3CC[C@@]21CC [Ultra-micronized levonorgestel, Levonorgestrel]
  D10: 0.2 μm
  D50: 1.0 μm
  D90: 1.1 μm
